Type in all cases: cell-based, human
The subject of assay [1] is MiaPaCa-2 cells. As to the kind of experiment: Cell proliferation (cell confluence), IncuCyte Live-Cell Analysis System. The note with it: MiaPaCa-2 cells. On the procedure:
The following cell lines were obtained from the American Type Culture Collection (Manassas, VA), where they were regularly authenticated: MiaPaCa-2 (ATCC Cat# CRL-1420, human pancreatic cancer cells), U87MG (ATCC Cat# HTB-14, human brain cancer cells), A549 (ATCC Cat# CCL-185, lung cancer cells), and HCT-116 (ATCC Cat# CCL-247, colon cancer cells). All cell lines were grown at 37 °C in 5% carbon dioxide. MiaPaCa-2 cells were maintained in Dulbecco's Modified Eagle Medium (Thermo Fisher Scientific, Waltham, MA; Cat# 11965) supplemented with 10% fetal bovine serum. U87MG, A549, and HCT-116 cells were maintained in RPMI 1640 medium (Thermo Fisher Scientific, Cat# 11875), supplemented with 10% fetal bovine serum. All cells were stored in liquid nitrogen and used within 20 passages after thawing.
The IncuCyte Live-Cell Analysis System was used to monitor cell proliferation[3],[33],[67]. As shown in previous publications[3],[67], this imaging system is probe-free and noninvasive, and enables continuous monitoring of cell confluence over several days. The increase in the percentage of cell confluence was used as a surrogate marker of cell proliferation. In a 96-well plate, cells were plated at 1,000 cells per well in triplicates and left to adhere overnight. Cells were then treated with Mito-PEG-ATO analogs, and the cell confluency was recorded over several days in the IncuCyte Live-Cell Analysis System.

Assay [2] relates to MiaPaCa-2 cells. Description: Intracellular ATP, luciferase-based assay. The note with it: Mito-PEG5-ATO 0 µM, 24 h. The protocol:
After seeding cells overnight at 2 × 10^4 per well in 96-well plates, cells were treated for 24 h. Intracellular ATP levels were determined in cell lysates using a luciferase-based assay per the manufacturer’s instructions (cat# FLAA, Sigma Aldrich, St. Louis, MO). In brief, the assay starts by rapidly adding an ATP assay mix solution (luciferase and luciferin solution, cat# FLAAM) to cell lysates. This is swirled briskly to mix, and the amount of light produced is immediately measured with a luminometer. The results were normalized to the total protein level measured in each well, as determined by the Bradford method (Bio-Rad Laboratories, Hercules, CA).

Assay [3] has as its system MiaPaCa-2 cells. Description: Intracellular oxidants: HPLC of hydroethidine (HE) oxidation products. The following applies: 24 h, with Mito-PEG5-ATO 0.05 µM, AZD-3965 200 µM or CPI-613 200 µM. The protocol:
Hydroethidine (HE) or dihydroethidium was used as a fluorogenic probe to assess the cellular generation of superoxide and other peroxidatic oxidants[36],[37]. Cells were treated for 24 h with Mito-PEG5-ATO alone or in combination with AZD-3965 or CPI-613, followed by 1 h incubation with HE (10 µM). Cells were harvested and the cell pellet stored at − 80 °C until the day of high-performance liquid chromatography (HPLC) analysis. Sample preparation and HPLC analysis were performed as previously reported[32],[36]. 2-OH-E^+ was used as a specific marker for superoxide, and E^+-E^+ was used as a specific marker for intracellular one-electron oxidants[36],[37].
HE was purchased from Invitrogen (Carlsbad, CA). Stock solutions (20 mM and 5 mM, respectively) were prepared in deoxygenated DMSO (dimethyl sulfoxide) and stored at − 80 °C until use. Ethidium cation (bromide salt) was purchased from Sigma-Aldrich. The hydroxylated oxidation products from HE (2-OH-E^+) were prepared by reacting the probes with Fremy’s salt as previously described in detail[70],[71]. The dimeric products were prepared by reacting the probes with excess potassium ferricyanide, as detailed elsewhere. Synthesized standards of all oxidation products of HE were purified by HPLC. HPLC-based measurements of HE and its oxidation products were performed using an Agilent 1100 system equipped with absorption and fluorescence detectors and refrigerated autosampler (4 °C). The samples (50 µL) were injected into a reverse phase column (Phenomenex, Kinetex C18, 100 mm × 4.6 mm, 2.6 µm) equilibrated with 20% acetonitrile and 80% water containing 0.1% trifluoroacetic acid. The compounds were eluted by increasing the content of acetonitrile from 20 to 56% over 4.5 min at a flow rate of 1.5 mL/min. The absorption detector was used to measure 3,8-diamino-6-phenylphenanthridine (at 290 nm; retention time: 2.5 min), HE-E^+ (at 290 nm; retention time: 4.1 min), E^+-E^+ (at 290 nm; retention time: 4.3 min), and HE (at 370 nm; retention time: 1.6 min). A fluorescence detector (initial excitation at 358 nm and emission at 440 nm) was used to monitor HE (when present at low concentrations). At 2.3 min after injection, the fluorescence parameters were changed (excitation at 490 nm and emission at 567 nm) for sensitive detection of 2-OH-E^+ (retention time: 3.2 min) and E^+ (retention time: 3.3 min).

The structures appear in SMILES notation.

`CCOC(=O)Oc1c(OC)cc(C(=O)O[C@@H]2C[C@@H]3CN4CCc5c([nH]c6cc(OC)ccc56)[C@H]4C[C@@H]3[C@H](C(=O)OC)[C@H]2OC)cc1OC` [syrosingopine]: the IC50 in the assay with MiaPaCa-2 cells [1] (Homo sapiens, MIA PaCa-2, inhibitor alone, control ~90% confluence, read-out: IC50 (cell proliferation) without Mito-PEG5-ATO) turned out to be 8 µM. Also, the “Inhibition of cell proliferation in combination with Mito-PEG5-ATO (combination index)” value in the assay on MiaPaCa-2 cells [1] (combined with Mito-PEG5-ATO) was “Synergistic inhibition”. Besides, in the assay with MiaPaCa-2 cells [1] (heat map Fig. 7d), the “% changes of IC50 with vs without Mito-PEG5-ATO” value was found to be 53.8%. For the same compound, the “intracellular ATP level” value is reported as 29.40 nmol ATP/mg protein in the assay on MiaPaCa-2 cells [2] (syrosingopine 1 µM); 30.31 nmol ATP/mg protein with MiaPaCa-2 cells [2] (syrosingopine 3 µM); 29.92 nmol ATP/mg protein in the assay with MiaPaCa-2 cells [2] (syrosingopine 4 µM); 30.42 nmol ATP/mg protein in the assay with MiaPaCa-2 cells [2] (syrosingopine 5 µM); 30.16 nmol ATP/mg protein in the assay with MiaPaCa-2 cells [2] (syrosingopine 6 µM); 31.07 nmol ATP/mg protein with MiaPaCa-2 cells [2] (syrosingopine 7 µM). Further, the “intracellular ATP level” value in the assay on MiaPaCa-2 cells [2] (syrosingopine 8 µM) is on record as 31.92 nmol ATP/mg protein; in the assay with MiaPaCa-2 cells [2] (syrosingopine 9 µM), 32.59 nmol ATP/mg protein; in the assay with MiaPaCa-2 cells [2] (syrosingopine 10 µM), 32.30 nmol ATP/mg protein; with MiaPaCa-2 cells [2] (syrosingopine 15 µM), 33.63 nmol ATP/mg protein; in the assay on MiaPaCa-2 cells [2] (syrosingopine 20 µM), 30.18 nmol ATP/mg protein. Moreover, the “Intracellular oxidant-induced HE-derived products, in combination with Mito-PEG5-ATO” value with MiaPaCa-2 cells [3] was “modest and additive increase”.

(Values after PMC8948292, “Combining PEGylated mito-atovaquone with MCT and Krebs cycle redox inhibitors as a potential strategy to abrogate tumor cell proliferation” (Scientific Reports, 2022).)
